Results taken from PubChem BioAssay AID1963827 (Molecular Pharmacology Branch, DTP, NCI, 2024).

Tested on: 994946-033-R-J1-PDC complex spheroid viability
Assay: Anticancer human tumor 994946-033-R-J1-PDC patient-derived melanoma cell line growth inhibition [POLQ]
Settings: for IC50: curve of first compound; for viability, T/C: stronger effect = lower value
Summary of the method: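 Complex spheroid viability model combining PDC tumour cells with endothelial (HUVEC) and MSC stromal cells. Novobiocin, ART-558 or RP6685 were tested singly and in combination with standard and investigational anticancer drugs. Each was titrated in half-log steps from near clinical Cmax, or from 10 microM where Cmax was unknown.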

[1] = second compound 0.0316 µM, first compound 0.0316 µM
[2] = second compound 0.0316 µM, first compound 0.1 µM
[3] = second compound 0.1 µM, first compound 0.0316 µM
[4] = second compound 0.1 µM, first compound 0.1 µM
[5] = second compound 0.316 µM, first compound 0.0316 µM
[6] = second compound 0.316 µM, first compound 0.1 µM
[7] = second compound 1 µM, first compound 0.0316 µM
[8] = second compound 1 µM, first compound 0.1 µM
[9] = second compound 3.16 µM, first compound 0.0316 µM
[10] = second compound 3.16 µM, first compound 0.1 µM
[11] = second compound 10 µM, first compound 0.0316 µM
[12] = second compound 10 µM, first compound 0.1 µM
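Further: spheroids exposed to drugs for 7 days.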
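Wherever viability, T/C is given: 100% = DMSO vehicle treated spheroids.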

## C#Cc1c(F)ccc2cc(O)cc(-c3ncc4c(N5CC6CCC(C5)N6)nc(OCC56CCCN5CC(F)C6)nc4c3F)c12 (centres undefined) + Cc1cccc(N(C)C(=O)C2C(O)CCN2c2nc(C)cc(C(F)(F)F)c2C#N)c1
Second compound 0.0316 µM
  IC50: 5.05 µM
Second compound 0.1 µM
  IC50: 7.26 µM
Second compound 0.316 µM
  IC50: 4.35 µM
Second compound 1 µM
  IC50: 5.27 µM
Second compound 3.16 µM
  IC50: 4.78 µM
Second compound 10 µM
  IC50: 5.91 µM
[1]
  viability, T/C: 97.6%
[2]
  viability, T/C: 103%
Second compound 0.0316 µM, first compound 0.316 µM
  viability, T/C: 101%
Second compound 0.0316 µM, first compound 1 µM
  viability, T/C: 93.8%
Second compound 0.0316 µM, first compound 3.16 µM
  viability, T/C: 76.5%
Second compound 0.0316 µM, first compound 10 µM
  viability, T/C: 12%
[3]
  viability, T/C: 77%
[4]
  viability, T/C: 112%
Second compound 0.1 µM, first compound 0.316 µM
  viability, T/C: 101%
Second compound 0.1 µM, first compound 1 µM
  viability, T/C: 106%
Second compound 0.1 µM, first compound 3.16 µM
  viability, T/C: 103%
Second compound 0.1 µM, first compound 10 µM
  viability, T/C: 30.7%
[5]
  viability, T/C: 119%
[6]
  viability, T/C: 102%
Second compound 0.316 µM, first compound 0.316 µM
  viability, T/C: 114%
Second compound 0.316 µM, first compound 1 µM
  viability, T/C: 82%
Second compound 0.316 µM, first compound 3.16 µM
  viability, T/C: 64.7%
Second compound 0.316 µM, first compound 10 µM
  viability, T/C: 18.1%
[7]
  viability, T/C: 121%
[8]
  viability, T/C: 99.5%
Second compound 1 µM, first compound 0.316 µM
  viability, T/C: 105%
Second compound 1 µM, first compound 1 µM
  viability, T/C: 107%
Second compound 1 µM, first compound 3.16 µM
  viability, T/C: 82.7%
Second compound 1 µM, first compound 10 µM
  viability, T/C: 9.05%
[9]
  viability, T/C: 106%
[10]
  viability, T/C: 95.3%
Second compound 3.16 µM, first compound 0.316 µM
  viability, T/C: 79.1%
Second compound 3.16 µM, first compound 1 µM
  viability, T/C: 82.8%
Second compound 3.16 µM, first compound 3.16 µM
  viability, T/C: 78.3%
Second compound 3.16 µM, first compound 10 µM
  viability, T/C: 5.59%
[11]
  viability, T/C: 111%
[12]
  viability, T/C: 104%
Second compound 10 µM, first compound 0.316 µM
  viability, T/C: 97.7%
Second compound 10 µM, first compound 1 µM
  viability, T/C: 95.9%
Second compound 10 µM, first compound 3.16 µM
  viability, T/C: 114%
Second compound 10 µM, first compound 10 µM
  viability, T/C: 4.03%

## CC[C@@]1(O)C(=O)OCc2c1cc1n(c2=O)Cc2cc3c(CN(C)C)c(O)ccc3nc2-1 + Cc1cccc(N(C)C(=O)C2C(O)CCN2c2nc(C)cc(C(F)(F)F)c2C#N)c1
Second compound 0.0316 µM
  IC50: 0.0191 µM
Second compound 0.1 µM
  IC50: 0.0191 µM
Second compound 0.316 µM
  IC50: 0.0201 µM
Second compound 1 µM
  IC50: 0.0112 µM
Second compound 3.16 µM
  IC50: 0.0183 µM
Second compound 10 µM
  IC50: 0.0211 µM
Second compound 0.0316 µM, first compound 0.000316 µM
  viability, T/C: 80.5%
Second compound 0.0316 µM, first compound 0.001 µM
  viability, T/C: 94%
Second compound 0.0316 µM, first compound 0.00316 µM
  viability, T/C: 110%
Second compound 0.0316 µM, first compound 0.01 µM
  viability, T/C: 73%
[1]
  viability, T/C: 30.9%
[2]
  viability, T/C: 8.8%
Second compound 0.1 µM, first compound 0.000316 µM
  viability, T/C: 113%
Second compound 0.1 µM, first compound 0.001 µM
  viability, T/C: 78.6%
Second compound 0.1 µM, first compound 0.00316 µM
  viability, T/C: 87%
Second compound 0.1 µM, first compound 0.01 µM
  viability, T/C: 78%
[3]
  viability, T/C: 28.5%
[4]
  viability, T/C: 9.63%
Second compound 0.316 µM, first compound 0.000316 µM
  viability, T/C: 83.4%
Second compound 0.316 µM, first compound 0.001 µM
  viability, T/C: 106%
Second compound 0.316 µM, first compound 0.00316 µM
  viability, T/C: 94.8%
Second compound 0.316 µM, first compound 0.01 µM
  viability, T/C: 82%
[5]
  viability, T/C: 29.2%
[6]
  viability, T/C: 12.1%
Second compound 1 µM, first compound 0.000316 µM
  viability, T/C: 108%
Second compound 1 µM, first compound 0.001 µM
  viability, T/C: 71.3%
Second compound 1 µM, first compound 0.00316 µM
  viability, T/C: 79.3%
Second compound 1 µM, first compound 0.01 µM
  viability, T/C: 57.5%
[7]
  viability, T/C: 26.9%
[8]
  viability, T/C: 9.85%
Second compound 3.16 µM, first compound 0.000316 µM
  viability, T/C: 96.1%
Second compound 3.16 µM, first compound 0.001 µM
  viability, T/C: 98.7%
Second compound 3.16 µM, first compound 0.00316 µM
  viability, T/C: 77%
Second compound 3.16 µM, first compound 0.01 µM
  viability, T/C: 71%
[9]
  viability, T/C: 33.4%
[10]
  viability, T/C: 10.7%
Second compound 10 µM, first compound 0.000316 µM
  viability, T/C: 113%
Second compound 10 µM, first compound 0.001 µM
  viability, T/C: 99.6%
Second compound 10 µM, first compound 0.00316 µM
  viability, T/C: 107%
Second compound 10 µM, first compound 0.01 µM
  viability, T/C: 81.8%
[11]
  viability, T/C: 32.7%
[12]
  viability, T/C: 10.4%
